# Tests used:
# CYP2C9 = CYP2C9 (Homo sapiens (Human), UniProt P11712); assay: Inhibition of liver cytochrome P450 enzymes (pooled human liver microsomes), CYP2C9; conditions: read-out: CYP2C9 IC50
# Method: (§1) Solutions of each test compound were separately prepared at concentrations of 20000, 6000, 2000, 600, 200, and 60 μM by serial dilution with DMSO:MeCN (50:50 v/v). The individual test compound solutions were then diluted 20 fold with DMSO:MeCN:deionized water (5:5:180 v/v/v) to concentrations of 1000, 300, 100, 30, 10, and 3 μM. […] The percent of organic solvent attributable to the test compound or inhibitor mixture in the final reaction mixture was 2% v/v.
# (§2) Pooled human liver microsome suspension (20 mg/mL) was diluted with phosphate buffer to obtain a 5 mg/mL suspension. A solution of NADPH was prepared in phosphate buffer at a concentration of 5 mM. Separate stock solutions of each substrate were prepared in DMSO:MeCN (50:50 v/v), mixed, and diluted in phosphate buffer to obtain a single solution containing each substrate at five times its experimentally determined Km concentration. […]
# (§3) Substrate solution and microsome suspension were combined in a 1:1 volume ratio, mixed, and distributed to reaction wells of a PCR plate. […] A portion of the supernatant was analyzed by gradient reverse-phase HPLC with detection by electrospray ionization triple quadrupole mass spectrometry in the positive ion mode.
# (§4) Data was fitted to sigmoid dose-response curves and the inhibitory potency of each test compound was determined as its IC50 value.
# CYP2C19 = CYP2C19 (Homo sapiens (Human), UniProt P33261); assay: Inhibition of liver cytochrome P450 enzymes (pooled human liver microsomes), CYP2C19; conditions: read-out: CYP2C19 IC50
# Chain of CYP2C19 (P33261 whole entry): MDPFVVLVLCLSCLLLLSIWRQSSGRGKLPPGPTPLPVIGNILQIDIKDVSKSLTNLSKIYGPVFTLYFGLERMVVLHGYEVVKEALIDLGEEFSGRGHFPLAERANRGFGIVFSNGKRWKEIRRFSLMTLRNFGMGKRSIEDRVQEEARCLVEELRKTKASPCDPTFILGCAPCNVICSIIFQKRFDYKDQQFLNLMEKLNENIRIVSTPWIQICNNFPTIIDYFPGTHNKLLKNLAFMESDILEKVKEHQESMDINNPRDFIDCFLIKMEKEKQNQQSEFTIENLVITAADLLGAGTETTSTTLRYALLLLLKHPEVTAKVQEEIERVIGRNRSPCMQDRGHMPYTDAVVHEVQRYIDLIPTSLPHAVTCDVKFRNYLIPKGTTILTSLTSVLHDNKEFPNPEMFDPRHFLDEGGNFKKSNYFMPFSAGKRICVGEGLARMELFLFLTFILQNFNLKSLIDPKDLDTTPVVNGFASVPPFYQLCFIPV
# Method: as §1, §2, §3, §4
# CYP17 = CYP17 (Rattus norvegicus (Rat), UniProt P11715); assay: Inhibition of CYP17 (pooled rat testicular microsomes); assay type: biochemical
# Chain of CYP17 (P11715 whole entry): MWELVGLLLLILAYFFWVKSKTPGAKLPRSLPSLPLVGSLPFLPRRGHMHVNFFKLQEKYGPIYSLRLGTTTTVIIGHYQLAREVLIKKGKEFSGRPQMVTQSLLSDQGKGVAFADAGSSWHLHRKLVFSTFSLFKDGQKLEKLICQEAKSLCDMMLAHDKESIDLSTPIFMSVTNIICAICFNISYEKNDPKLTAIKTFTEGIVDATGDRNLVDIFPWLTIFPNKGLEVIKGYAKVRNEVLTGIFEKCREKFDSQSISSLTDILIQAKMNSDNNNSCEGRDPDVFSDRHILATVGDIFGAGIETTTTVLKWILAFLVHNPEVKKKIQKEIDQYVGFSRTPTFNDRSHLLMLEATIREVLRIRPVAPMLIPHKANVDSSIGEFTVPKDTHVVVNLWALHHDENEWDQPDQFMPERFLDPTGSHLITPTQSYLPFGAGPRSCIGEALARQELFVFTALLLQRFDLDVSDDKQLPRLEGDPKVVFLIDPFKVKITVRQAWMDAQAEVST
# Method: CYP17 activity was assayed according to the following procedure. […] The individual test compound and isozyme inhibitor solutions were then diluted 20-fold with deionized water (50:950 v/v) to concentrations of 135, 27, 4.5, 0.9, 0.15, 0.03 and 0.005 μM. […] For active controls, blank test compound diluent was added in place of test compound solution.
# Chain of CYP2C9 (P11712 whole entry): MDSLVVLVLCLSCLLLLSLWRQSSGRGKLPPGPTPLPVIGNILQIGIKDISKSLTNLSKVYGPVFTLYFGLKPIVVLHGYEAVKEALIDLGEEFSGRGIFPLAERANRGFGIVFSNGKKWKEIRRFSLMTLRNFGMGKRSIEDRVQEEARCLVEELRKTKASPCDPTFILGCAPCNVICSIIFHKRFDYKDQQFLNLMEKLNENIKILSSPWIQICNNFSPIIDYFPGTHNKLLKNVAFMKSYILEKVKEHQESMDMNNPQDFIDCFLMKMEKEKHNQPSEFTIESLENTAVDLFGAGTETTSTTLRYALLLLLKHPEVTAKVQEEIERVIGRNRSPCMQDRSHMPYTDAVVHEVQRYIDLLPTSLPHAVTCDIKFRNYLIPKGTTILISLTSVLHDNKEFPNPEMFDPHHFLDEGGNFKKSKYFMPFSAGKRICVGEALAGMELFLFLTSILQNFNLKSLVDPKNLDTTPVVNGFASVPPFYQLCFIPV
SMILES,IC50 (CYP2C9) [µM],IC50 (CYP2C19) [µM],IC50 (CYP17) [µM]
"COc1cc2ccc(C(O)(c3c[nH]nn3)C(C)C)cc2cc1OC (centres unmarked) [Example 1, 1-(6,7-Dimethoxynaphthalen-2-yl)-2-methyl-1-(1H-1,2,3-triazol-4-yl)propan-1-ol]",39,33,0.18
"COc1cc2cnc(C(O)(c3c[nH]nn3)C(C)C)cc2cc1OC (centres unmarked) [Example 2, 1-(6,7-Dimethoxyisoquinolin-3-yl)-2-methyl-1-(1H-1,2,3-triazol-4-yl)propan-1-ol]",–,–,0.96
"CC(=O)N1CCN(c2ccc(OCC3COC(Cn4ccnc4)(c4ccc(Cl)cc4Cl)O3)cc2)CC1 (centres unmarked) [Ketoconazole, reference compound]",–,–,0.4

# More lines, now with the values ahead:
IC50 (CYP2C9) [µM],IC50 (CYP2C19) [µM],IC50 (CYP17) [µM],SMILES
12,19,–,"CC(C)C(O)(c1ccc2cc(OC(F)F)c(OC(F)F)cc2c1)c1c[nH]nn1 (centres unmarked) [Example 3, 1-(6,7-Bis(difluoromethoxy)naphthalen-2-yl)-2-methyl-1-(1H-1,2,3-triazol-4-yl)propan-1-ol]"
–,–,0.51,"CC(C)C(O)(c1ccc2cc(-c3cnco3)ccc2c1)c1c[nH]nn1 (centres unmarked) [Example 4, 2-Methyl-1-(6-(oxazol-5-yl)naphthalen-2-yl)-1-(1H-1,2,3-triazol-4-yl)propan-1-ol]"

# Source: patent publication US8623892B2, “Metalloenzyme inhibitor compounds” (Viamet Pharmaceuticals, Inc., priority 2010, dated 2014)
